The test system of the assay is upper airway collapsibility in anaesthetized, spontaneously breathing pigs. The experiment in a line: pig model of obstructive sleep apnea (OSA): upper airway collapsibility under negative pressure. It is filed as in vivo, German Landrace pigs. The following applies: for Percent pigs without collaps −50 cm H2O / Percent pigs without collaps −100 cm H2O / Percent pigs without collaps −150 cm H2O: i.v. bolus 0.3 mg/kg then i.v. infusion 0.1 mg/kg/h. From the text:
The therapeutic potential of the compounds of formula (I) according to the present invention in sleep apnea has been assessed preclinically in a pig model of obstructive sleep apnea (OSA).
Using negative pressure, it is possible to induce collapse and thus obstruction of the upper respiratory tract in anaesthetized, spontaneously breathing pigs (Wirth K. J. et al., Sleep 36(5) (2013) pp. 699-708).
German Landrace pigs are used for the model. The pigs are anaesthetized and tracheotomized. Two tracheal are inserted into the trachea, one into the rostral part and the other into the caudal part of the trachea. Using a connection piece, the rostral cannula is connected to a tube to the negative pressure device and to the distal tracheal cannula. The distal tracheal cannula is additionally connected to a tube with an open end to atmosphere via a connection piece that served for free tracheal breathing, circumventing the upper airway. By appropriate opening and clamping of those tubes breathing can be switched from nasal breathing to breathing through the caudal tracheal cannula, circumventing the upper airway, and the (isolated) upper airway can be connected to the negative pressure device, causing airflow in the inspiratory direction.
At certain points in time, the collapsibility of the upper respiratory tract is tested by having the pig breathe via the caudal cannula and applying negative pressures of −50, −100 and −150 cm water head (cm H2O) to the upper respiratory tract. This causes the upper respiratory tract to collapse, which manifests itself in an interruption of the airflow and a pressure drop in the tube system. This test is conducted prior to the administration of the test substance and at certain intervals after the administration of the test substance. An appropriately effective test substance can prevent this collapse of the respiratory tract in the inspiratory phase.
In this OSA pig model, systemic application of the α2-Adrenoceptor subtype C (alpha-2C) antagonists of formula (I) (1S,12bS)-1-(methoxymethyl)-1-methyl-[…][2,3-a]quinolizine with i.v. bolus injection of 0.3 mg/kg followed by an i.v. infusion of 0.1 mg/kg/h for four hours inhibited upper airway collapsibility at all negative pressures of −50, −100 and −150 cm for more than 6 hours (see Table 1, 2 and 3 and FIG. 1).

[1] abbreviates: time 0 min (time of administration).

The values that follow come from patent US20220218677A1, “ARYLQUINOZILINE DERIVATIVES AS ALPHA2-ADRENOCEPTOR SUBTYPE C (ALPHA-2C) ANTAGONISTS FOR THE TREATMENT OF SLEEP APNEA” (Bayer Aktiengesellschaft, priority 2019, published 2022).

On to `COC[C@@]1(C)CCCN2CCc3c(oc4ccccc34)[C@@H]21` [(1S,12bS)-1-(methoxymethyl)-1-methyl-1,3,4,6,7,12b-hexahydro-2H-[1]benzofuro[2,3-a]quinolizine], for which the “duration of inhibition of upper airway collapsibility” value (all negative pressures of −50, −100 and −150 cm, i.v. bolus 0.3 mg/kg followed by i.v. infusion 0.1 mg/kg/h for four hours) is listed as “more than 6 hours”. The “Percent pigs without collaps −50 cm H2O” value under setting [1] worked out at 0%; the “Percent pigs without collaps −50 cm H2O” value (time 10 min) stood at 100%; the “Percent pigs without collaps −50 cm H2O” value (time 60 min) amounted to 100%; the “Percent pigs without collaps −50 cm H2O” value (time 120 min) was found to be 100%; the “Percent pigs without collaps −50 cm H2O” value (time 180 min) is 100%; the “Percent pigs without collaps −50 cm H2O” value (time 240 min) stood at 100%. Besides, the “Percent pigs without collaps −50 cm H2O” value (time 300 min) was 100%. In addition, the “Percent pigs without collaps −100 cm H2O” value runs as follows: under setting [1], 0%; (time 10 min) 100%; (time 60 min) 100%; (time 120 min) 100%; (time 180 min) 100%; (time 240 min) 100%. Moreover, the “Percent pigs without collaps −100 cm H2O” value (time 300 min) was determined as 100%. Moreover, the “Percent pigs without collaps −150 cm H2O” value is on record as 0% under setting [1]; 100% (time 10 min); 100% (time 60 min); 100% (time 120 min); 100% (time 180 min); 100% (time 240 min). For the same compound, the “Percent pigs without collaps −150 cm H2O” value (time 300 min) stood at 100%.
